Reference: patent US9549921B2, “Heterocyclic compounds and methods of use thereof for the treatment of hepatitis C” (priority 2014, dated 2017)
Like-named read-outs stand apart in the source and are kept apart here.

Tests used:
HCV replicon genotype 1a = experiment: HCV replicon assay, genotype 1a (cell ELISA for NS3/4A); assay type: cell-based, hepatitis C virus
In short: (§1)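 Readout is NS3/4A protein level from an antibody-based cell ELISA, serving as an indirect measure of replicon RNA; IC50 fitted with a four-parameter function relative to DMSO control. Replicon cells, kept under G418 beforehand, were plated with serial compound dilutions minus G418 for 96 hours.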

HCV replicon genotype 1b = experiment: HCV replicon assay, genotype 1b (cell ELISA for NS3/4A); assay type: cell-based, hepatitis C virus
In short: as §1

[1] = read-out: 1a IC50, HCV genotype 1a replicon cells, 96 hours incubation, NS3/4A ELISA readout, % of DMSO control
[2] = read-out: 1b IC50, HCV genotype 1b replicon cells, 96 hours incubation, NS3/4A ELISA readout, % of DMSO control
[3] = Hepatitis C virus, 96 h, read-out: 1a IC50 (nM), HCV genotype 1a replicon cells, 96 hours incubation, NS3/4A ELISA readout, % of DMSO control
[4] = Hepatitis C virus, 96 h, read-out: 1b IC50 (nM), HCV genotype 1b replicon cells, 96 hours incubation, NS3/4A ELISA readout, % of DMSO control

Row | Structure (SMILES) | IC50 (HCV replicon genotype 1a; [1]) [nM] | IC50 (HCV replicon genotype 1b; [2]) [nM] | IC50 (HCV replicon genotype 1a; [3]) [nM] | IC50 (HCV replicon genotype 1b; [4]) [nM]
1 | CNC(=O)c1c(-c2ccc(F)cc2)oc2cc(N(C)S(C)(=O)=O)c([C@@H]3CCN(C(=O)c4cc5c(F)cccc5n4C)C3)cc12 (single isomer, unassigned) [Example 15, 5-(1-(4-fluoro-1-methyl-1H-indole-2-carbonyl)pyrrolidin-3-yl)-2-(4-fluorophenyl)-N-methyl-6-(N-methylmethylsulfonamido)benzofuran-3-carboxamide] | 125 | 11.2 |  | 
2 | CNC(=O)c1c(-c2ccc(F)cc2)oc2cc(N(C)S(C)(=O)=O)c([C@@H]3CCCN(S(=O)(=O)C4CCCCC4)C3)cc12 [Example 116, 5-[(3S)-1-(cyclohexylsulfonyl)piperidin-3-yl]-2-(4-fluorophenyl)-N-methyl-6-[methyl(methylsulfonyl)amino]-1-benzofuran-3-carboxamide] |  |  | 194 | 31.7
3 | CNC(=O)c1c(-c2ccc(F)cc2)oc2cc(N(C)S(C)(=O)=O)c([C@@H]3CCCN(C(=O)c4nc5ccccc5o4)C3)cc12 [Example 77, 5-[1-(1,3-benzoxazol-2-ylcarbonyl)piperidin-3-yl]-2-(4-fluorophenyl)-N-methyl-6-[methyl(methylsulfonyl)amino]-1-benzofuran-3-carboxamide] |  |  | 64.3 | 19.2
4 | CNC(=O)c1c(-c2ccc(F)cc2)oc2cc(N(C)S(C)(=O)=O)c([C@H]3CCCN(C(=O)c4cc5c(F)cccc5[nH]4)C3)cc12 [Example 88, 5-{(3R)-1-[(4-fluoro-1H-indol-2-yl)carbonyl]piperidin-3-yl}-2-(4-fluorophenyl)-N-methyl-6-[methyl(methylsulfonyl)amino]-1-benzofuran-3-carboxamide] |  |  | 70.7 | 38.7
5 | CNC(=O)c1c(-c2ccc(F)cc2)oc2cc(N(C)S(C)(=O)=O)c([C@@H]3CCCN(C(=O)c4cc5cccc(OC)c5[nH]4)C3)cc12 (single isomer, unassigned) [Example 42, 2-(4-fluorophenyl)-5-(1-(7-methoxy-1H-indole-2-carbonyl)piperidin-3-yl)-N-methyl-6-(N-methylmethylsulfonamido)benzofuran-3-carboxamide] | 106 | 23.9 |  | 
6 | CNC(=O)c1c(-c2ccc(F)cc2)oc2cc(N(C)S(C)(=O)=O)c([C@@H]3CCCN(C(=O)c4oc5ccc(F)cc5c4C)C3)cc12 [Example 62, 5-{1-[(5-fluoro-3-methyl-1-benzofuran-2-yl)carbonyl]piperidin-3-yl}-2-(4-fluorophenyl)-N-methyl-6-[methyl(methylsulfonyl)amino]-1-benzofuran-3-carboxamide] |  |  | 192 | 41.2
7 | CNC(=O)c1c(-c2ccc(F)cc2)oc2cc(N(C)S(C)(=O)=O)c([C@@H]3CCCN(C(=O)c4cc5ccccc5[nH]4)C3)cc12 (single isomer, unassigned) [Example 22, 5-(1-(1H-indole-2-carbonyl)piperidin-3-yl)-2-(4-fluorophenyl)-N-methyl-6-(N-methylmethylsulfonamido)benzofuran-3-carboxamide] | 40.8 | 18.8 |  | 
8 | CNC(=O)c1c(-c2ccc(F)cc2)oc2cc(N(C)S(C)(=O)=O)c([C@@H]3CCCN(C(=O)Cc4ccc(F)cc4)C3)cc12 (single isomer, unassigned) [Example 18, 2-(4-fluorophenyl)-5-(1-(2-(4-fluorophenyl)acetyl)piperidin-3-yl)-N-methyl-6-(N-methylmethylsulfonamido)benzofuran-3-carboxamide] | 188 | 72.2 |  | 
9 | CNC(=O)c1c(-c2ccc(F)cc2)oc2cc(N(C)S(C)(=O)=O)c([C@@H]3CCCN(c4nc5ccccc5n4C)C3)cc12 (single isomer, unassigned) [Example 43, 2-(4-fluorophenyl)-N-methyl-5-(1-(1-methyl-1H-benzo[d]imidazol-2-yl)piperidin-3-yl)-6-(N-methylmethylsulfonamido)benzofuran-3-carboxamide] |  |  | 41.2 | 93
10 | CNC(=O)c1c(-c2ccc(F)cc2)oc2cc(N(C)S(C)(=O)=O)c([C@H]3CCCN(S(=O)(=O)c4ccccc4C)C3)cc12 [Example 128, 2-(4-fluorophenyl)-N-methyl-6-[methyl(methylsulfonyl)amino]-5-{(3R)-1-[(2-methylphenyl)sulfonyl]piperidin-3-yl}-1-benzofuran-3-carboxamide] |  |  | 34.2 | 24.2
11 | CNC(=O)c1c(-c2ccc(F)cc2)oc2cc(N(C)S(C)(=O)=O)c([C@@H]3CCCN(c4nc5ccccc5o4)C3)cc12 (single isomer, unassigned) [Example 48, 5-(1-(benzo[d]oxazol-2-yl)piperidin-3-yl)-2-(4-fluorophenyl)-N-methyl-6-(N-methylmethylsulfonamido)benzofuran-3-carboxamide] | 40.2 | 24.8 |  | 
12 | CNC(=O)c1c(-c2ccc(F)cc2)oc2cc(N(C)S(C)(=O)=O)c([C@H]3CCCN(S(=O)(=O)Cc4ccc(F)cc4)C3)cc12 [Example 80, 5-{(3R)-1-[(4-fluorobenzyl)sulfonyl]piperidin-3-yl}-2-(4-fluorophenyl)-N-methyl-6-[methyl(methylsulfonyl)amino]-1-benzofuran-3-carboxamide] |  |  | 3.17 | 4.5
13 | CNC(=O)c1c(-c2ccc(F)cc2)oc2cc(N(C)S(C)(=O)=O)c([C@@H]3CCCN(C(=O)c4c[nH]cc4-c4ccc(F)cc4)C3)cc12 [Example 71, 2-(4-fluorophenyl)-5-(1-{[4-(4-fluorophenyl)-1H-pyrrol-3-yl]carbonyl}piperidin-3-yl)-N-methyl-6-[methyl(methylsulfonyl)amino]-1-benzofuran-3-carboxamide] |  |  | 168 | 95.4
14 | CNC(=O)c1c(-c2ccc(F)cc2)oc2cc(N(C)S(C)(=O)=O)c([C@H]3CCCN(C(=O)c4nc5ccc(F)cc5s4)C3)cc12 [Example 93, 5-{(3R)-1-[(6-fluoro-1,3-benzothiazol-2-yl)carbonyl]piperidin-3-yl}-2-(4-fluorophenyl)-N-methyl-6-[methyl(methylsulfonyl)amino]-1-benzofuran-3-carboxamide] |  |  | 181 | 102
15 | CNC(=O)c1c(-c2ccc(F)cc2)oc2cc(N(C)S(C)(=O)=O)c([C@H]3CCCN(S(=O)(=O)c4cccc5nonc45)C3)cc12 [Example 138, 5-[(3R)-1-(2,1,3-benzoxadiazol-4-ylsulfonyl)piperidin-3-yl]-2-(4-fluorophenyl)-N-methyl-6-[methyl(methylsulfonyl)amino]-1-benzofuran-3-carboxamide] |  |  | 139 | 55.7
16 | CCn1c(C(=O)N2CCC[C@H](c3cc4c(C(=O)NC)c(-c5ccc(F)cc5)oc4cc3N(C)S(C)(=O)=O)C2)cc2c(F)cccc21 [Example 34, (R)-5-(1-(1-ethyl-4-fluoro-1H-indole-2-carbonyl)piperidin-3-yl)-2-(4-fluorophenyl)-N-methyl-6-(N-methylmethylsulfonamido)benzofuran-3-carboxamide] |  |  | 84.1 | 65.3
17 | CNC(=O)c1c(-c2ccc(F)cc2)oc2cc(N(C)S(C)(=O)=O)c([C@@H]3CCCN(C(=O)c4nc5ncccc5[nH]4)C3)cc12 [Example 35, (S)-5-(1-(1H-imidazo[4,5-b]pyridine-2-carbonyl)piperidin-3-yl)-2-(4-fluorophenyl)-N-methyl-6-(N-methylmethylsulfonamido)benzofuran-3-carboxamide] |  |  | 71.6 | 48.9
18 | CNC(=O)c1c(-c2ccc(F)cc2)oc2cc(N(C)S(C)(=O)=O)c([C@@H]3CCCN(C(=O)C4CC4c4ccccn4)C3)cc12 (stereo partly shown) [Example 78, 2-(4-fluorophenyl)-N-methyl-6-[methyl(methylsulfonyl)amino]-5-{1-[(2-pyridin-2-ylcyclopropyl)carbonyl]piperidin-3-yl}-1-benzofuran-3-carboxamide] | 248 | 81.2 |  | 
19 | CNC(=O)c1c(-c2ccc(F)cc2)oc2cc(N(C)S(C)(=O)=O)c([C@@H]3CCCN(C(=O)CC4CCCCC4)C3)cc12 [Example 68, 5-[1-(cyclohexylacetyl)piperidin-3-yl]-2-(4-fluorophenyl)-N-methyl-6-[methyl(methylsulfonyl)amino]-1-benzofuran-3-carboxamide] |  |  | 98 | 89
20 | CNC(=O)c1c(-c2ccc(F)cc2)oc2cc(N(C)S(C)(=O)=O)c([C@@H]3CCCN(S(=O)(=O)c4ccc(F)cc4)C3)cc12 [Example 115] |  |  | 36.6 | 8
21 | CNC(=O)c1c(-c2ccc(F)cc2)oc2cc(N(C)S(C)(=O)=O)c([C@@H]3CCCN(c4ncc(-c5ccc(F)cc5)o4)C3)cc12 (single isomer, unassigned) [Example 58, 2-(4-fluorophenyl)-5-(1-(5-(4-fluorophenyl)oxazol-2-yl)piperidin-3-yl)-N-methyl-6-(N-methylmethylsulfonamido)benzofuran-3-carboxamide] | 132 | 36.1 |  | 
22 | CNC(=O)c1c(-c2ccc(F)cc2)oc2cc(N(C)S(C)(=O)=O)c([C@H]3CCCN(C(=O)c4cc5ccccn5c4)C3)cc12 [Example 106, 2-(4-fluorophenyl)-5-[(3R)-1-(indolizin-2-ylcarbonyl)piperidin-3-yl]-N-methyl-6-[methyl(methylsulfonyl)amino]-1-benzofuran-3-carboxamide] |  |  | 123 | 51.5
23 | CNC(=O)c1c(-c2ccc(F)cc2)oc2cc(N(C)S(C)(=O)=O)c([C@@H]3CCCN(c4nc5c(F)cccc5[nH]4)C3)cc12 (single isomer, unassigned) [Example 56, 5-(1-(4-fluoro-1H-benzo[d]imidazol-2-yl)piperidin-3-yl)-2-(4-fluorophenyl)-N-methyl-6-(N-methylmethylsulfonamido)benzofuran-3-carboxamide] | 53.7 | 23.9 |  | 
